The supplement of paper PMC10307832

Experiments:
Assay in all cases: relative viability (nuclei count vs DMSO), 5 days (fraction); higher = more cells survive
BI-2536 + Foretinib = compound: CC[C@@H]1C(=O)N(C)c2cnc(Nc3ccc(C(=O)NC4CCN(C)CC4)cc3OC)nc2N1C1CCCC1 [BI-2536] + COc1cc2c(Oc3ccc(NC(=O)C4(C(=O)Nc5ccc(F)cc5)CC4)cc3F)ccnc2cc1OCCCN1CCOCC1 [Foretinib] (partner 0.25 µM)
How it was run: (§1)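 Lung cancer cell lines, seeded in 1536-well plates, were treated the following day by pin tool with a single drug or with five library-drug doses (not always all listed) in √10 steps on top of a fixed anchor-drug dose. Cells were fixed and nuclei stained in one step after 5 days, and nuclei were counted. Relative viability is the nuclei count for treated wells divided by that for vehicle wells, reported as medians of duplicate plates.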

BI-2536 + Phenformin = compound: CC[C@@H]1C(=O)N(C)c2cnc(Nc3ccc(C(=O)NC4CCN(C)CC4)cc3OC)nc2N1C1CCCC1 [BI-2536] + N=C(N)NC(=N)NCCc1ccccc1 [Phenformin] (partner 250 µM)
How it was run: as §1

[1] = compound: CC1CC(=O)N(C2=CN=C(N=C2N1C3CCCC3)NC4=C(C=C(C=C4)C(=O)NC5CCN(CC5)C)OC)C [NPK76-II-72-1] + Cc1nc(Nc2ncc(C(=O)Nc3c(C)cccc3Cl)s2)cc(N2CCN(CCO)CC2)n1 [Dasatinib] (partner 0.075 µM)
How it was run: as §1

[2] = compound: CC1CC(=O)N(C2=CN=C(N=C2N1C3CCCC3)NC4=C(C=C(C=C4)C(=O)NC5CCN(CC5)C)OC)C [NPK76-II-72-1] + Cc1nc(NC(=O)N2CCC[C@H]2C(N)=O)sc1-c1ccnc(C(C)(C)C(F)(F)F)c1 [Alpelisib] (partner 2 µM)
How it was run: as §1

Row | Cell Line | relative viability (BI-2536 + Foretinib; first compound 0.01 µM) | relative viability (BI-2536 + Foretinib; first compound 0.03162 µM) | relative viability (BI-2536 + Foretinib; first compound 0.1 µM) | relative viability (BI-2536 + Foretinib; first compound 0.3162 µM) | relative viability (BI-2536 + Foretinib; first compound 1 µM) | relative viability (BI-2536 + Phenformin; first compound 0.01 µM) | relative viability (BI-2536 + Phenformin; first compound 0.03162 µM) | relative viability (BI-2536 + Phenformin; first compound 0.1 µM) | relative viability (BI-2536 + Phenformin; first compound 0.3162 µM) | relative viability (BI-2536 + Phenformin; first compound 1 µM) | relative viability ([1]; first compound 0.01 µM) | relative viability ([1]; first compound 0.03162 µM) | relative viability ([1]; first compound 0.1 µM) | relative viability ([1]; first compound 0.3162 µM) | relative viability ([1]; first compound 1 µM) | relative viability ([2]; first compound 0.01 µM) | relative viability ([2]; first compound 0.03162 µM) | relative viability ([2]; first compound 0.1 µM) | relative viability ([2]; first compound 0.3162 µM) | relative viability ([2]; first compound 1 µM)
1 | HCC-366 | 0.959 | 0.847 | 0.225 | 0.0291 | 0.0206 | 0.67 | 0.605 | 0.256 | 0.0215 | 0.0251 | 0.593 | 0.633 | 0.638 | 0.606 | 0.635 | 0.401 | 0.443 | 0.456 | 0.435 | 0.452
2 | HCC-827 | 1.03 | 0.958 | 0.86 | 0.254 | 0.234 | 0.421 | 0.377 | 0.43 | 0.241 | 0.157 | 0.252 | 0.319 | 0.435 | 0.388 | 0.37 | 0.942 | 0.931 | 0.988 | 1.02 | 1.09
3 | HOP-62 | 1.19 | 1.05 | 0.767 | 0.182 | 0.146 | 0.7 | 0.654 | 0.43 | 0.141 | 0.141 | 0.585 | 0.653 | 0.633 | 0.672 | 0.64 | 1.08 | 0.999 | 0.871 | 1.1 | 1.12
4 | LC-2-ad | 0.909 | 0.386 | 0.289 | 0.285 | 0.322 | 0.609 | 0.545 | 0.257 | 0.203 | 0.292 | 0.569 | 0.862 | 0.485 | 0.438 | 0.791 | 0.845 | 0.921 | 0.838 | 0.936 | 1
5 | LCLC-97TM1 | 0.958 | 0.91 | 0.637 | 0.149 | 0.179 | 0.43 | 0.432 | 0.366 | 0.137 | 0.154 | 0.896 | 0.917 | 0.822 | 0.785 | 0.8 |  | 0.24 | 0.18 | 0.235 | 0.257
6 | LCLC-103H | 0.802 | 0.854 | 0.618 | 0.161 | 0.153 | 0.306 | 0.338 | 0.295 | 0.152 | 0.143 | 0.418 | 0.442 | 0.404 | 0.535 | 0.447 | 0.929 | 0.928 | 1.07 | 0.925 | 0.993
7 | LK-2 | 1.32 | 0.923 | 0.861 | 0.18 | 0.162 | 0.473 | 0.362 | 0.165 | 0.15 | 0.163 | 0.299 | 0.275 | 0.322 | 0.233 | 0.244 | 1 | 1.23 | 1.12 |  | 0.652
8 | LOU-NH91 | 0.987 | 0.861 | 0.857 | 0.363 | 0.273 | 0.706 | 0.662 | 0.583 | 0.273 | 0.252 | 0.52 | 0.498 | 0.528 | 0.401 | 0.612 | 0.682 | 0.72 | 0.719 | 0.563 | 0.814
